# Patent publication US20240401154A1, “SYNTHESIS AND PREPARATION OF ULTRA-LOW VISCOSITY AND HIGH MAGNETIC SUSCEPTIBILITY MAGNETIC IONIC LIQUIDS” (priority 2023, published 2024)
# Where two headings read alike, the source gives them in different places. Marks after values point to notes of the source that are not given here.
# Experiments:
# [1] = previously studied MILs, Table 2, cited from earlier work
# [2] = SQUID magnetometer; previously studied MILs, Table 2; cited from earlier work
# [3] = previously referenced MILs, cited from earlier work
# [4] = GC-FID; previously referenced MILs; cited from earlier work
# [5] = Viscosity, Brookfield DVI cone and plate viscometer; format: physicochemical; details: 21.7° C.; neat MIL dried 48 hours under vacuum
# Outline: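 Cone and plate viscometer with CPA-51Z spindle, about 0.5 g of each MIL after 48 h vacuum drying. Measured at 21.6–21.7 °C.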
# [6] = Effective magnetic moment from magnetic susceptibility balance (MSB); format: physicochemical; details: per formula unit
# Experimental: Magnetic properties were analyzed using a magnetic susceptibility balance (MSB, Sherwood Scientific, Cambridge, UK) and a Quantum Design Superconducting Quantum Interference Device (SQUID) magnetometer (MPMS XL-7). The magnetic properties of transition metal MILs were further studied using a SQUID magnetometer to confirm their paramagnetic nature as well as if any magnetic transition occurs in the samples.
# Magnetic susceptibility (XM) was calculated through Equation (1).
# Effective magnetic moment (μeff) was calculated through Equation (2). In Equation (2), T represents the temperature at which the magnetic susceptibility measurements were conducted.
# 15 MILs incorporating rare-earth and transition metals were examined using a magnetic susceptibility balance (MSB).
# [7] = Solubility of MILs in organic solvents and water; format: physicochemical
# Excerpt: The solubility of lanthanide and transition metal MILs was investigated in popular traditional organic solvents. […]
# The solubility of lanthanide and transition metal MILs was investigated in popular traditional organic solvents.
# [8] = Thermal stability, MIL as GC stationary phase with FID; format: physicochemical; details: exponential increase in response beyond 2,000 pA
# Outline: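 TGA run from 40 to 350 °C at 5 °C min^−1. For a more sensitive check, MILs served as GC stationary phase under an oven program of 40 to 200 °C at 1 °C min^−1, with decomposition/degradation products detected by FID.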
# [9] = Thermal stability by thermogravimetric analysis (TGA); format: physicochemical; details: TGA at 10% weight loss
# Experimental: The thermal stability of MILs was measured from 40 to 350° C. at a ramp rate of 5° C. min^−1 by performing thermogravimetric analysis (TGA) using a NETZSCH STA 449 F1 Jupiter thermal analyzer (Selb, Germany). To further investigate the thermal stability of MILs using a more sensitive technique, the solvents were employed as a gas chromatographic (GC) stationary phase and subjected to an oven temperature program from 40 to 200° C. at a ramp rate of 1° C. min^−1 and decomposition/degradation products detected using an ultra-sensitive flame ionization detector (FID), with all measurements being performed on an Agilent Technologies 7890B gas chromatograph (Santa Clara, CA, USA).
# Volitization/degradation of MILs as a function of temperature were measured using thermogravimetric analysis. The thermal stability of magnetic ionic liquids was measured from 40 to 350° C. at a ramp rate of 5° C. min^−1 by performing thermogravimetric analysis (TGA) using a NETZSCH STA 449 F1 Jupiter thermal analyzer (Selb, Germany).
# To investigate the ability of DGE-based MILs to withstand elevated temperatures without undergoing degradation/decomposition, their thermal stabilities were investigated using thermogravimetric analysis (TGA). FIG. 13 through FIG. 27 display thermograms for MILs 1 to 15. The thermogram results are summarized in greater detail in the following paragraphs.
# [10] = acetone, chloroform, dichloromethane, acetonitrile, methanol, ethanol, diethyl ether, ethyl acetate, isopropanol at 20% (w/v)
# [11] = hexane, heptane, benzene, toluene at 10% (w/v)
# [12] = hexane, heptane, benzene, toluene at 20% (w/v)
# [13] = twelve organic solvents (without acetonitrile) at 50% (w/v)
SMILES,Viscosity ([1]; reported at 19.9° C.),Effective magnetic moment [2],"Solubility [3, 10]","Solubility [3, 11]",Solubility ([3]; water at 0.01% (w/v)),Onset of MIL volatilization (° C.)^1 [4],Viscosity ([1]; reported at 20.0° C.),Viscosity (cP) [5],"μeff, effective magnetic moment [6]","Solubility [7, 10]",Solubility ([7]; acetonitrile at 50% (w/v)),"Solubility [7, 11]","Solubility [7, 12]","Solubility [7, 13]",Solubility ([7]; water at 0.01% (w/v)),Onset of MIL volatilization (° C.)^1 [8],Onset of MIL volatilization (° C.)^2 [9]
CCCCCCCCN(CCCCCCCC)C(=O)COCC(=O)N(CCCCCCCC)CCCCCCCC.CCCCCCCCN(CCCCCCCC)C(=O)COCC(=O)N(CCCCCCCC)CCCCCCCC.O=C(C=C([O-])C(F)(F)F)C(F)(F)F.O=C(C=C([O-])C(F)(F)F)C(F)(F)F.O=C(C=C([O-])C(F)(F)F)C(F)(F)F.O=C(C=C([O-])C(F)(F)F)C(F)(F)F.O=C(C=C([O-])C(F)(F)F)C(F)(F)F.O=C(C=C([O-])C(F)(F)F)C(F)(F)F.[Co+2].[Co+2].[Co+2] [[Co(TODGA)2][Co(hfacac)3]2],"28,310^e",13.34^f,"S^b (soluble in acetone, chloroform, dichloromethane, acetonitrile, methanol, ethanol, diethyl ether, ethyl acetate, and isopropanol at 20% (w/v).)","S^a (soluble in hexane, heptane, benzene, and toluene at 10% (w/v).)",S^f (insoluble in water at 0.01% (w/v).),231 °C,–,–,–,–,–,–,–,–,–,–,–
CCCCCCCCCCCCCC[P+](CCCCCC)(CCCCCC)CCCCCC.CCCCCCCCCCCCCC[P+](CCCCCC)(CCCCCC)CCCCCC.[Cl-].[Cl-].[Cl-].[Cl-].[Co+2] [[P66614]2[CoCl4]],–,4.45^f,–,–,–,–,"123,500^d",–,–,–,–,–,–,–,–,–,–
CCCCCCCCCCCCCC[P+](CCCCCC)(CCCCCC)CCCCCC.CCCCCCCCCCCCCC[P+](CCCCCC)(CCCCCC)CCCCCC.CCCCCCCCCCCCCC[P+](CCCCCC)(CCCCCC)CCCCCC.[Cl-].[Cl-].[Cl-].[Cl-].[Cl-].[Cl-].[Gd+3] [[P66614]3[GdCl6]],–,7.86^f,–,–,–,–,"28,230^d",–,–,–,–,–,–,–,–,–,–
CCCCCCCCCCCCCC[P+](CCCCCC)(CCCCCC)CCCCCC.CCCCCCCCCCCCCC[P+](CCCCCC)(CCCCCC)CCCCCC.[Cl-].[Cl-].[Cl-].[Cl-].[Mn+2] [[P66614]2[MnCl4]],–,5.81^f,–,–,–,–,"112,300^d",–,–,–,–,–,–,–,–,–,–
CCCCCCOC(=O)COCC(=O)OCCCCCC.CCCCCCOC(=O)COCC(=O)OCCCCCC.CCCCCCOC(=O)COCC(=O)OCCCCCC.CCCCCCOC(=O)COCC(=O)OCCCCCC.CCCCCCOC(=O)COCC(=O)OCCCCCC.CCCCCCOC(=O)COCC(=O)OCCCCCC.O=C(C=C([O-])C(F)(F)F)C(F)(F)F.O=C(C=C([O-])C(F)(F)F)C(F)(F)F.O=C(C=C([O-])C(F)(F)F)C(F)(F)F.O=C(C=C([O-])C(F)(F)F)C(F)(F)F.O=C(C=C([O-])C(F)(F)F)C(F)(F)F.O=C(C=C([O-])C(F)(F)F)C(F)(F)F.[Ni+2].[Ni+2].[Ni+2] [compound 2],–,–,–,–,–,–,–,248.6 cP,5.48 μB,"S^b (soluble in acetone, chloroform, dichloromethane, acetonitrile, methanol, ethanol, diethyl ether, ethyl acetate, and isopropanol at 20% (w/v).)",S^e (insoluble in acetonitrile at 50% (w/v).),"S^a (soluble in hexane, heptane, benzene, and toluene at 10% (w/v).)","S^c (soluble in hexane, heptane, benzene, and toluene at 20% (w/v).)","S^d (soluble in acetone, chloroform, dichloromethane, methanol, ethanol, diethyl ether, ethyl acetate, isopropanol hexane, heptane, benzene, and toluene at 50% (w/v).)",S^f (insoluble in water at 0.01% (w/v).),166 °C,257.0 °C
CCCCCCCCOC(=O)COCC(=O)OCCCCCCCC.CCCCCCCCOC(=O)COCC(=O)OCCCCCCCC.CCCCCCCCOC(=O)COCC(=O)OCCCCCCCC.CCCCCCCCOC(=O)COCC(=O)OCCCCCCCC.CCCCCCCCOC(=O)COCC(=O)OCCCCCCCC.CCCCCCCCOC(=O)COCC(=O)OCCCCCCCC.O=C(C=C([O-])C(F)(F)F)C(F)(F)F.O=C(C=C([O-])C(F)(F)F)C(F)(F)F.O=C(C=C([O-])C(F)(F)F)C(F)(F)F.O=C(C=C([O-])C(F)(F)F)C(F)(F)F.O=C(C=C([O-])C(F)(F)F)C(F)(F)F.O=C(C=C([O-])C(F)(F)F)C(F)(F)F.O=C(C=C([O-])C(F)(F)F)C(F)(F)F.O=C(C=C([O-])C(F)(F)F)C(F)(F)F.[Co+2].[Ho+3].[Ho+3] [compound 15],–,–,–,–,–,–,–,216.4 cP,15.56 μB,"S^b (soluble in acetone, chloroform, dichloromethane, acetonitrile, methanol, ethanol, diethyl ether, ethyl acetate, and isopropanol at 20% (w/v).)",–,"S^a (soluble in hexane, heptane, benzene, and toluene at 10% (w/v).)","S^c (soluble in hexane, heptane, benzene, and toluene at 20% (w/v).)","S^d (soluble in acetone, chloroform, dichloromethane, methanol, ethanol, diethyl ether, ethyl acetate, isopropanol hexane, heptane, benzene, and toluene at 50% (w/v).)",S^f (insoluble in water at 0.01% (w/v).),115 °C,183.3 °C
O=C(C=C([O-])C(F)(F)F)C(F)(F)F.O=C(C=C([O-])C(F)(F)F)C(F)(F)F.O=C(C=C([O-])C(F)(F)F)C(F)(F)F.O=C(C=C([O-])C(F)(F)F)C(F)(F)F.O=C(C=C([O-])C(F)(F)F)C(F)(F)F.O=C(C=C([O-])C(F)(F)F)C(F)(F)F.O=C(COCC(=O)OC1CCCCC1)OC1CCCCC1.O=C(COCC(=O)OC1CCCCC1)OC1CCCCC1.O=C(COCC(=O)OC1CCCCC1)OC1CCCCC1.O=C(COCC(=O)OC1CCCCC1)OC1CCCCC1.O=C(COCC(=O)OC1CCCCC1)OC1CCCCC1.O=C(COCC(=O)OC1CCCCC1)OC1CCCCC1.[Ni+2].[Ni+2].[Ni+2] [compound 8],–,–,–,–,–,–,–,827.6 cP,5.53 μB,"S^b (soluble in acetone, chloroform, dichloromethane, acetonitrile, methanol, ethanol, diethyl ether, ethyl acetate, and isopropanol at 20% (w/v).)",S^e (insoluble in acetonitrile at 50% (w/v).),"S^a (soluble in hexane, heptane, benzene, and toluene at 10% (w/v).)","S^c (soluble in hexane, heptane, benzene, and toluene at 20% (w/v).)","S^d (soluble in acetone, chloroform, dichloromethane, methanol, ethanol, diethyl ether, ethyl acetate, isopropanol hexane, heptane, benzene, and toluene at 50% (w/v).)",S^f (insoluble in water at 0.01% (w/v).),154 °C,182.2 °C
CCCCCCCCOC(=O)COCC(=O)OCCCCCCCC.CCCCCCCCOC(=O)COCC(=O)OCCCCCCCC.CCCCCCCCOC(=O)COCC(=O)OCCCCCCCC.CCCCCCCCOC(=O)COCC(=O)OCCCCCCCC.CCCCCCCCOC(=O)COCC(=O)OCCCCCCCC.CCCCCCCCOC(=O)COCC(=O)OCCCCCCCC.O=C(C=C([O-])C(F)(F)F)C(F)(F)F.O=C(C=C([O-])C(F)(F)F)C(F)(F)F.O=C(C=C([O-])C(F)(F)F)C(F)(F)F.O=C(C=C([O-])C(F)(F)F)C(F)(F)F.O=C(C=C([O-])C(F)(F)F)C(F)(F)F.O=C(C=C([O-])C(F)(F)F)C(F)(F)F.[Ni+2].[Ni+2].[Ni+2] [compound 5],–,–,–,–,–,–,–,119.1 cP,5.33 μB,"S^b (soluble in acetone, chloroform, dichloromethane, acetonitrile, methanol, ethanol, diethyl ether, ethyl acetate, and isopropanol at 20% (w/v).)",–,"S^a (soluble in hexane, heptane, benzene, and toluene at 10% (w/v).)","S^c (soluble in hexane, heptane, benzene, and toluene at 20% (w/v).)","S^d (soluble in acetone, chloroform, dichloromethane, methanol, ethanol, diethyl ether, ethyl acetate, isopropanol hexane, heptane, benzene, and toluene at 50% (w/v).)",S^f (insoluble in water at 0.01% (w/v).),190 °C,264.4 °C
